Data set [1] concerns HuH-7 cells. The data set is described as follows: Inhibition of HuH-7 cell proliferation (CellTiter-Glo). Format: cell-based. The settings on record: Homo sapiens, 72 hours. The gist of the method: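 HuH-7 cells, pre-incubated 16–24 h (37 °C, 5% CO2), then exposed to serially diluted compound for 72 h. Viability by CellTiter-Glo luminescence; inhibition rates from signal, IC50 by curve fitting.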

Data set [2] concerns SK-HEP-1 cells. The data set is described as follows: Inhibition of SK-HEP-1 cell proliferation (CellTiter-Glo). Format: cell-based. Particulars: Homo sapiens, SK-HEP1, 72 hours. The gist of the method: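 SK-HEP-1 cells were seeded, grown 16–24 h, then exposed to serially diluted compound for 72 h at 37 °C, 5% CO2. Viability was read by CellTiter-Glo luminescence, and IC50 was fitted from inhibition rates.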

For data set [3], the target named is FGFR1 kinase (Homo sapiens (Human), UniProt P11362). The data set is described as follows: Enzymologic experiment of FGFR1 (TR-FRET). Format: biochemical. The settings on record: TR-FRET kinase activity. The gist of the method:
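Inhibition of FGFR1 (0.1–5 nM) was measured by TR-FRET with 5–50 nM peptide substrate and 10–200 μM ATP over 0.5–3 h at room temperature. The reaction was stopped with EDTA plus labeled antibody for 1 h, read at 665 nm, and IC50 was fitted from inhibition rates.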

For data set [4], the system named is Hep 3B cells. The data set is described as follows: Inhibition of Hep 3B cell proliferation (CellTiter-Glo). Format: cell-based. Particulars: Homo sapiens, Hep3B, 72 hours. In short, it runs like this: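 Hep 3B cells seeded at 1-5×10^4 cells/ml and incubated 16-24 h, then exposed to serially diluted compound for 72 h at 37° C, 5% CO2. Viability read by CellTiter-Glo chemiluminescence; IC50 curve-fitted from inhibition rates.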

Data set [5] addresses FGFR4 kinase (Homo sapiens (Human), UniProt P22455). The data set is described as follows: Enzymologic experiment of FGFR4 (TR-FRET). Format: biochemical. Particulars: TR-FRET kinase activity. On the procedure: 1. Enzymologic Experiment of FGFR4
In this experiment, the inhibitory effect of the compounds on FGFR4 kinase activity was tested by a fluorescence resonance energy transfer (TR-FRET) method, and the half maximal inhibitory concentration (IC50) of the compounds on the FGFR4 kinase activity was determined.
2) 1˜5 μL of diluted solution in gradient of the compound were added.
4) The mixture was incubated for 0.5-3 hours at room temperature.
5) 10 μL of EDTA and a test solution comprising labeled antibody were added, and the plate was incubated for 1 hour at room temperature.
6) The fluorescence signal values of each plate were determined by a microplate reader at 665 nm.
7) The inhibition rates were calculated according to the fluorescence signal values.

Data set [6] in a line: Pharmacokinetic (PK) analysis in rats. Format: in vivo, Sprague Dawley (SD) rats. Particulars: SD rats, single intragastric administration, 5 mg/kg, plasma; for AUC(0-t) / AUC(0-inf) / half-life / MRT / Cmax: Sprague-Dawley, rat, po; for AUC(0-t): read-out: Area Under Curve AUC0-t; for AUC(0-inf): read-out: Area Under Curve AUC0-∞; for half-life: read-out: Half-Time t1/2 (converted); for MRT: read-out: Mean Residence Time MRT; for Cmax: read-out: Plasma Concentration Cmax.

Chain of FGFR1 kinase (P11362 22-822): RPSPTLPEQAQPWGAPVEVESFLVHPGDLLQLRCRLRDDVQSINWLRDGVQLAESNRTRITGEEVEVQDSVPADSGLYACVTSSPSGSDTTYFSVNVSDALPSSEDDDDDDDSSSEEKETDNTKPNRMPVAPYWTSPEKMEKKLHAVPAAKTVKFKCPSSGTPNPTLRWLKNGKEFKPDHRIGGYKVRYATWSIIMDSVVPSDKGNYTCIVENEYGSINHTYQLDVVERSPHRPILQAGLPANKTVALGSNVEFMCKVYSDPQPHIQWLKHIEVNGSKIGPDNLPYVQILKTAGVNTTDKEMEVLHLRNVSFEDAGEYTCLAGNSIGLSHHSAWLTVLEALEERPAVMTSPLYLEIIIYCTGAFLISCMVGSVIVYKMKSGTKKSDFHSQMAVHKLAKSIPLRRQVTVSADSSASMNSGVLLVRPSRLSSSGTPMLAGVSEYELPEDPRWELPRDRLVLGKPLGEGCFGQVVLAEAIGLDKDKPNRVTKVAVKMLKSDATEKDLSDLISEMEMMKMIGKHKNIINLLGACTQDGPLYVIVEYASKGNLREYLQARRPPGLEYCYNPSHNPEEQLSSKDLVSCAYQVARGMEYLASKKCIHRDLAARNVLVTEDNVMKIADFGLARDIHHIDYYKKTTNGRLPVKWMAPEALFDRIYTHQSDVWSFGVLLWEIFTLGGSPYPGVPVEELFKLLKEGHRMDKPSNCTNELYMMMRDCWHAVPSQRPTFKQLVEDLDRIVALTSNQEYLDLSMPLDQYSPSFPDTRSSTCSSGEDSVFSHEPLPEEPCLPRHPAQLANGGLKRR
Chain of FGFR4 kinase (P22455 22-802): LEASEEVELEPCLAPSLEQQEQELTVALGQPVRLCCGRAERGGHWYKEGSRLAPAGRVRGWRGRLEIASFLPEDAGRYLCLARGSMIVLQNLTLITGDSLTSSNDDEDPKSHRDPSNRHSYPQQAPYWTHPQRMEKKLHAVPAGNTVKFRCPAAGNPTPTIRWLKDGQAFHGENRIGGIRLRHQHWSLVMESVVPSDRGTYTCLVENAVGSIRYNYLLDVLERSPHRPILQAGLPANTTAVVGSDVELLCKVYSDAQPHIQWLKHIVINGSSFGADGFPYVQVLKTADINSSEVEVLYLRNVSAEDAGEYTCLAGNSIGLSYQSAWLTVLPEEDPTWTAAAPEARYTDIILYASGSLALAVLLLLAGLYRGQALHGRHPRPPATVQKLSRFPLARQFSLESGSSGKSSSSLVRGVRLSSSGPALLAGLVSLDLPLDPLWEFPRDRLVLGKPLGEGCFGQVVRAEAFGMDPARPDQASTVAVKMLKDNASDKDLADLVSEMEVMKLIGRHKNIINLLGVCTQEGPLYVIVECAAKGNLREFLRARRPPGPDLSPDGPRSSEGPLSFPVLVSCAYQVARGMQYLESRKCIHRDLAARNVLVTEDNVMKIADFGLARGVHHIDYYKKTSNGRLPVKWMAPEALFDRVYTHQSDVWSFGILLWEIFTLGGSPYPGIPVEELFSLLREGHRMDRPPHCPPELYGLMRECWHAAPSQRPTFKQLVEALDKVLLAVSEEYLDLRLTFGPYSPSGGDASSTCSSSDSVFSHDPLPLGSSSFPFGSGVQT

Turning to `COCC(=O)N(C)Cc1cc2c(nc1C=O)N(C(=O)Nc1cc(N[C@@H]3COC[C@H]3OC)c(C#N)cn1)CCC2` (relative stereo) [Example 108, N-(5-Cyano-4-(((trans)-4-methoxytetrahydrofuran-3-yl)amino)pyridin-2-yl)-7-formyl-6-((2-methoxy-N-methylacetamido)methyl)-3,4-dihydro-1,8-naphthyridin-1 (2H)-carboxamide], the IC50 in data set [1] was 10 nM; in data set [2], over 10000 nM; in data set [3] it was over 10000 nM; in data set [4], 2.5 nM; in data set [5] it was 1.07 nM.

Regarding `CN(Cc1cc2c(nc1C=O)N(C(=O)Nc1cc(N(C)C)c(C#N)cn1)CCC2)C(=O)C1CCCO1` (centres unmarked) [Example 4, N-(5-Cyano-4-(dimethylamino)pyridin-2-yl)-7-formyl-6-((N-methyltetrahydrofuran-2-carboxamido)methyl)-3,4-dihydro-1,8-naphthyridin-1(2H)-carboxamide], the values for the IC50 in data set [3] and in data set [5] were over 10000 nM and 4.54 nM, respectively.

In data set [1], `COCCNc1cc(NC(=O)N2CCCc3cc(CN(C)C(=O)[C@H]4CCCN4C)c(C=O)nc32)ncc1C#N` [Example 9, (R)—N-(5-Cyano-4-((2-methoxyethyl)amino)pyridin-2-yl)-6-((N,1-dimethylpyrrolidin-2-carboxamido)methyl)-7-formyl-3,4-dihydro-1,8-naphthyridin-1(2H)-carboxamide] came in with an IC50 of 31 nM. The same molecule displayed an IC50 in data set [2] of over 10000 nM. The IC50 in data set [3] was over 10000 nM. In addition, the half-inhibitory concentration (IC50) in data set [4] worked out at 8.2 nM. In data set [6], the Peak Time tmax was determined as 2 h, the AUC(0-t) was determined as 4.4 µg·h/mL, the AUC(0-inf) worked out at 4.8 µg·h/mL and the half-life was 1.3 h. Besides, in data set [6], the MRT came to 3 h and the Cmax came out at 1.7 µg/mL. For the same molecule, in data set [5], the IC50 is 0.74 nM.

The molecule `COCCNc1cc(NC(=O)N2CCCc3cc(CN(C)C(=O)[C@H]4CCCN4C(C)=O)c(C=O)nc32)ncc1C#N` [Example 10, (R)-6-((1-Acetyl-N-methylpyrrolidin-2-carboxamido)methyl)-N-(5-cyano-4-((2-methoxyethyl)amino)pyridin-2-yl)-7-formyl-3,4-dihydro-1,8-naphthyridin-1(2H)-carboxamide] returned an IC50 in data set [3] of over 10000 nM. Further, in data set [6], the Peak Time tmax worked out at 2 h, the AUC(0-t) worked out at 5.26 µg·h/mL, the AUC(0-inf) was 5.34 µg·h/mL and the half-life is 1 h. Further, in data set [6], the MRT amounted to 2.8 h and the Cmax is 1.96 µg/mL. Also, in data set [5], the IC50 amounted to 1.88 nM.

With `COC[C@@H](C)Oc1cc(NC(=O)N2CCCc3cc(CN(C)C(=O)[C@H]4CCCO4)c(C=O)nc32)ncc1C#N` [Example 15, N-(5-Cyano-4-(((R)-1-methoxypropan-2-yl)oxy)pyridin-2-yl)-7-formyl-6-(((R)—N-methyltetrahydrofuran-2-carboxamido)methyl)-3,4-dihydro-1,8-naphthyridin-1(2H)-carboxamide], in data set [1], inhibition was half-maximal at 8 nM (IC50). In data set [2], this molecule showed a 50% inhibitory concentration (IC50) of over 10000 nM. The molecule further had an IC50 in data set [3] of over 10000 nM. Further, the 50% inhibitory concentration (IC50) in data set [4] came to 3.5 nM. Also, in data set [6], the Peak Time tmax came out at 2 h, the AUC(0-t) came out at 7.16 µg·h/mL, the AUC(0-inf) was found to be 7.97 µg·h/mL and the half-life is 1.5 h. For the same molecule, in data set [6], the MRT was 3 h and the Cmax amounted to 2.69 µg/mL. In addition, in data set [5], half-maximal inhibition (IC50) required 2.53 nM.

Molecule `COCCSc1cc(NC(=O)N2CCCc3cc(CN(C)C(=O)[C@H]4CCCO4)c(C=O)nc32)ncc1C#N` [Example 16, (R)—N-(5-Cyano-4-((2-methoxyethyl)thio)pyridin-2-yl)-7-formyl-6-((N-methyltetrahydrofuran-2-carboxamido)methyl)-3,4-dihydro-1,8-naphthyridin-1(2H)-carboxamide] registered an IC50 in data set [1] of 10.7 nM. Also, the IC50 in data set [2] was over 10000 nM. Moreover, in data set [3], the IC50 was over 10000 nM. Moreover, the IC50 in data set [4] is 3.9 nM. In data set [6], the Peak Time tmax turned out to be 2 h, the AUC(0-t) was determined as 8.76 µg·h/mL, the AUC(0-inf) came to 8.37 µg·h/mL and the half-life is 1.4 h. In addition, in data set [6], the MRT amounted to 2.5 h and the Cmax worked out at 3.15 µg/mL. In data set [5], this molecule registered an IC50 of 1.98 nM.

As to `CO[C@@H]1CCN(c2cc(NC(=O)N3CCCc4cc(CN(C)C(=O)[C@H]5CCCO5)c(C=O)nc43)ncc2C#N)C1` [Example 18, N-(5-Cyano-4-((R)-3-methoxypyrrolidin-1-yl)pyridin-2-yl)-7-formyl-6-(((R)—N-methyltetrahydrofuran-2-carboxamido)methyl)-3,4-dihydro-1,8-naphthyridin-1(2H)-carboxamide], the results for the half-inhibitory concentration (IC50) in data set [3] and in data set [5] were over 10000 nM and 4.2 nM, respectively.

In data set [1], `COC[C@@H](C)Oc1cc(NC(=O)N2CCCc3cc(CN4CC[C@H](OC)C4=O)c(C=O)nc32)ncc1C#N` [Example 50, N-(5-Cyano-4-(((R)-1-methoxypropan-2-yl)oxy)pyridin-2-yl)-7-formyl-6-(((S)-3-methoxy-2-carbonylpyrrolidin-1-yl)methyl)-3,4-dihydro-1,8-naphthyridin-1(2H)-carboxamide] registered an IC50 of 9.4 nM. In data set [2], this molecule had an IC50 of over 10000 nM. In data set [3], this molecule had an IC50 of over 10000 nM. Besides, the IC50 in data set [4] was determined as 2.3 nM. Moreover, in data set [6], the Peak Time tmax was found to be 2 h, the AUC(0-t) was determined as 9.21 µg·h/mL, the AUC(0-inf) came out at 9.25 µg·h/mL and the half-life is 0.8 h. In data set [6], the MRT turned out to be 2.5 h and the Cmax was found to be 2.35 µg/mL. For the same molecule, it took 1.2 nM to reach half-maximal inhibition in data set [5] (IC50).

For the molecule `CO[C@H]1CCN(Cc2cc3c(nc2C=O)N(C(=O)Nc2cc(NC4COC4)c(C#N)cn2)CCC3)C1=O` [Example 83, (S)—N-(5-Cyano-4-(oxetan-3-ylamino)pyridin-2-yl)-7-formyl-6-((3-methoxy-2-carbonylpyrrolidin-1-yl)methyl)-3,4-dihydro-1,8-naphthyridin-1(2H)-carboxamide], it took 5.5 nM to reach half-maximal inhibition in data set [1] (IC50). The molecule further registered an IC50 in data set [2] of over 10000 nM. Further, the IC50 in data set [3] is over 10000 nM. Further, in data set [4], the IC50 is 4.7 nM. In data set [6], the Peak Time tmax worked out at 2 h, the AUC(0-t) stood at 7.52 µg·h/mL, the AUC(0-inf) came out at 7.59 µg·h/mL and the half-life was 0.9 h. For the same molecule, in data set [6], the MRT turned out to be 3 h and the Cmax came out at 2.33 µg/mL. Besides, the midpoint of inhibition in data set [5], the IC50, lay at 1.32 nM.

`CCN1CCC[C@@H]1C(=O)N(C)Cc1cc2c(nc1C=O)N(C(=O)Nc1cc(NCCOC)c(C#N)cn1)CCC2` [Example 97, (R)—N-(5-Cyano-4-((2-methoxyethyl)amino)pyridin-2-yl)-6-((1-ethyl-N-methylpyrrolidin-2-carboxamido)methyl)-7-formyl-3,4-dihydro-1,8-naphthyridin-1(2H)-carboxamide]: the 50% inhibitory concentration (IC50) was 43.7 nM in data set [1]; over 10000 nM in data set [2]; over 10000 nM in data set [3]; 9.8 nM in data set [4]; 1.47 nM in data set [5].

As to `CN(Cc1cc2c(nc1C=O)N(C(=O)Nc1cc(N[C@H]3CCOC3)c(C#N)cn1)CCC2)C(=O)C1CCOCC1` [Example 99, (S)—N-(5-Cyano-4-((tetrahydrofuran-3-yl)amino)pyridin-2-yl)-7-formyl-6-((N-methyltetrahydro-2H-pyran-4-carboxamido)methyl)-3,4-dihydro-1,8-naphthyridin-1(2H)-carboxamide], the 50% inhibitory concentration (IC50) in data set [1] was 12 nM; in data set [2] it was over 10000 nM; in data set [3], over 10000 nM; in data set [4], 5.5 nM; in data set [5] it was 1.95 nM.

In data set [1], `COCC(=O)N(C)Cc1cc2c(nc1C=O)N(C(=O)Nc1cc(N3CC[C@@H](OC)C3)c(C#N)cn1)CCC2` [Example 107, (R)—N-(5-Cyano-4-(3-methoxypyrrolidin-1-yl)pyridin-2-yl)-7-formyl-6-((2-methoxy-N-methylacetamido)methyl)-3,4-dihydro-1,8-naphthyridin-1(2H)-carboxamide] had an IC50 of 7.3 nM. The IC50 in data set [2] is over 10000 nM. The molecule further displayed an IC50 in data set [3] of over 10000 nM. Also, 1.6 nM corresponded to half-maximal inhibition in data set [4] (IC50). Moreover, in data set [6], the Peak Time tmax was found to be 4 h, the AUC(0-t) was 2.63 µg·h/mL, the AUC(0-inf) was found to be 2.67 µg·h/mL and the half-life was 1 h. For the same molecule, in data set [6], the mean residence time MRT amounted to 2.8 h and the Cmax turned out to be 1.95 µg/mL.

The values are drawn from patent US11608332B2, “FGFR4 inhibitor and preparation method and use thereof” (Jiangsu Hansoh Pharmaceutical Group Co., Ltd., priority 2016, dated 2023).
